Experimental data reported in patent US4808411A, “Antibiotic-polymer compositions” (Abbott Laboratories, priority 1987, dated 1989).
Converted amounts (≈) assume the structure as drawn.

Experiments:
[1] = Solubility of drug after stirring material providing approx. 20 mg/mL active drug for 24 hours in water (buffer for pure drugs); assay type: physicochemical
[2] = Bioavailability of 6-O-methylerythromycin in dogs (Example 12); assay type: in vivo; conditions: dog, blood, po, 250 mg 6-O-methylerythromycin, fasted, histamine
Description: All dogs were fasted overnight, and histamine was administered one hour prior to dosing with the test composition. […] Blood samples were drawn and assayed using a standard microbiological assay. All dogs were fed 12 hours after dosing.

Work on `CC[C@H]1OC(=O)[C@H](C)[C@@H](O[C@H]2C[C@@](C)(OC)[C@@H](O)[C@H](C)O2)[C@H](C)[C@@H](O[C@@H]2O[C@H](C)C[C@H](N(C)C)[C@H]2O)[C@](C)(OC)C[C@@H](C)C(=O)[C@H](C)[C@@H](O)[C@]1(C)O` [6-O--Methyl-ery, 6-O-methylerythromycin] yielded a solubility at 24 h ([1]; pH 6.2, aqueous buffer) of 7000 µg/mL (≈ 9360 µM), a solubility at 24 h ([1]; pH 7, aqueous buffer) of 1650 µg/mL (≈ 2210 µM) and a solubility at 24 h ([1]; pH 7.98, aqueous buffer) of 134 µg/mL (≈ 179 µM). The AUC(0-t) at 8 h [2] was 43500 ng·h/mL, the Cmax [2] was 5370 ng/mL and the Tmax [2] was 1.33 h.

For `CC[C@H]1OC(=O)[C@H](C)[C@@H](O[C@H]2C[C@@](C)(OC)[C@@H](O)[C@H](C)O2)[C@H](C)[C@@H](O[C@@H]2O[C@H](C)C[C@H](N(C)C)[C@H]2O)[C@](C)(O)C[C@@H](C)C(=O)[C@H](C)[C@@H](O)[C@]1(C)O` [Erythromycin, erythromycin], the solubility at 24 h ([1]; pH 7.72, aqueous buffer) was 12200 µg/mL (≈ 16600 µM) and the solubility at 24 h ([1]; pH 8.24, aqueous buffer) was 2120 µg/mL (≈ 2890 µM).
